“And” between values parts separate entries of the source, which are not always exact repeats. Identical values can stand only once. Like-named read-outs stand apart in the source and are kept apart here.
Columns and labels:
[1] = Pharmacokinetics and plasma concentration of Example 101 in Lewis rats after oral administration (CIA study); format: in vivo, Lewis rat; settings: oral; for MRT inf: read-out: MRTInf—obs
IL-17A = IL-17A levels by ELISA in stimulated human peripheral blood mononuclear cells; format: cell-based; settings: for IC50: Homo sapiens, PBMC
Experimental: CD2, CD3, and CD28 antibody-coated beads from the T-cell activation/expansion kit (Miltenyi Biotec) were added to the PBMC at a bead-to-cell ratio of 1:2.
The mixture of PBMCs and beads were seeded into the wells of the round-bottom 96-well plate at a concentration of 2×10^5 cells/well in a total volume of 200 μL. The cells were cultured for 72 hours at 37° C. and 5% CO2 and then supernatants were collected and IL-17A and IL-22 levels were measured by ELISA. […] The final compound concentration ranged from 30,000 nM to 0.005 nM and the final DMSO concentration per well was 0.3%. PBMCs were seeded at approximately 2×10^5 cells/well in the wells of the 96-well tissue culture plate in a total volume of 190 μL. The plate was incubated for 1 hour at 37° C. and 5% CO2. […] The cells were then cultured for 24 hours at 37° C. and 5% CO2. The supernatant was collected and CXCL10 levels were measured by ELISA.

[2] = Plasma concentration of Example 101 in UUO rats by LC-MS/MS; format: in vivo, rat; settings: for concentration at 4 h: rat, plasma, po, 30 mg/kg
Excerpt: Serum for blood biochemistry analysis was collected into centrifuge tubes without coagulant four hours after final dosing. Blood plasma samples from group 3 was collected into tubes with K2EDTA four hours after final dosing. At the conclusion of the study (end of the 14-day period), animals were euthanized. Kidney tissue was collected four hours after final dosing. Ligated side kidney was divided into three copies ⅓ fix into 10% formalin for H&E analysis, ⅓ into RNA for PCR analysis of tissue biomarkers Col1a1, TGF-b1, MCP-1, IL-1b, IL-6, IL-17, TNF-a, and Timp1, and ⅓ for hydroxyproline assay analyzed by ELISA. RNA was extracted from tissue using the RNeasy mini kit (Qiagen). RNA concentration was measured using a NanoDrop One Spectrophotometer (ThermoFisher) and converted to cDNA using a High-Capacity RNA-to-cDNA kit (Invitrogen). RT-PCR was performed to measure levels of mRNA of different targets using TaqMan® Gene Expression Master Mix and TaqMan® probe/primer sets on a QuantStudio 6, Real-Time PCR System (ThermoFisher). Fold change in target gene expression was determined using the ΔΔCt method.
Samples were analyzed on a Raptor Biphenyl 2.7 μm 50×2.1 mm column. Solution A in the mobile phase was 95% water (0.1% formic acid) and solution B was 95% acetonitrile in water (0.1% formic acid), injection volume was 20 μL, and flow rate was 0.5 mL/min.
To prepare samples for analysis, serial concentrations were prepared by diluting the stock solution of analyte with a 50% acetonitrile in water solution. 5 μL working solutions (5, 10, 20, 50, 100, 500, 1000, 5000, and 10000 ng/mL) were added to 50 μL of the blank SD rat plasma to achieve calibration standards of −0.5 to 1000 ng/mL (0.5, 1, 2, 5, 10, 50, 100, 500, and 1000 ng/mL) in a total volume of 55 μL. […]
55 μL of standards, 55 μL of QC samples and 55 μL of unknown samples (50 μL of unknown rat plasma with 5 μL of blank solution) were added to 200 μL of acetonitrile containing IS mixture for precipitating protein respectively. […] 20 μL of diluted supernatant was injected into the LC/MS/MS system for quantitative analysis.

[3] = Lewis, rat, plasma, po, 10 mg/kg, day 0, 10 mg/kg, Mean
[4] = Lewis, rat, plasma, po, 10 mg/kg, day 0, 10 mg/kg, per test subject
[5] = Lewis, rat, plasma, po, 10 mg/kg, day 20, 10 mg/kg, per test subject
[6] = day 0, 10 mg/kg, per test subject
[7] = day 20, 10 mg/kg, per test subject

`CNC(=O)c1[nH]c(C(=O)NC2CCC2)cc1O[C@@H](C)c1ccccc1` (stereo in doubt) [Example 101, N^5-cyclobutyl-N^2-methyl-3-(1-phenylethoxy)-1H-pyrrole-2,5-dicarboxamide] gave a half-life [1, 3] of 3.22 h, a Cmax ([1]; Lewis, rat, plasma, po, 10 mg/kg, day 0, 10 mg/kg, Mean, read-out: Cmax) of 1980 ng/mL and an MRT inf [1, 3] of 8.61 h. For the same molecule, the Tmax ([1]; Lewis, rat, plasma, po, 10 mg/kg, day 0, 10 mg/kg, Mean, read-out: Tmax) was 7.3 h, the AUC(0-inf) [1, 4] was 14300 ng·h/mL and the AUC(0-t) [1, 4] was 14300 ng·h/mL. The Cmax ([1]; Lewis, rat, plasma, po, 10 mg/kg, day 0, 10 mg/kg, per test subject, read-out: Cmax) was 1880 ng/mL, the MRT inf [1, 4] was 7.64 h and the AUC(0-inf) [1, 5] was 8500 ng·h/mL. For the same molecule, the AUC(0-t) [1, 5] was 8420 ng·h/mL, the half-life [1, 5] was 3.46 h and the Cmax ([1]; Lewis, rat, plasma, po, 10 mg/kg, day 20, 10 mg/kg, per test subject, read-out: Cmax) was 1660 ng/mL. For the same molecule, the MRT inf [1, 5] was 6.09 h, the Tmax ([1]; Lewis, rat, plasma, po, 10 mg/kg, day 20, 10 mg/kg, per test subject, read-out: Tmax) was 0.5 h and the Plasma concentration ([1]; day 0, 10 mg/kg, 0.5 h, per test subject) was 673 ng/mL and 707 ng/mL. For the same molecule, the Plasma concentration ([1]; day 0, 10 mg/kg, 1 h, per test subject) was 1160 ng/mL and 1550 ng/mL, the Plasma concentration ([1]; day 0, 10 mg/kg, 2 h, per test subject) was 997 ng/mL and 1610 ng/mL and the Plasma concentration ([1]; day 0, 10 mg/kg, 4 h, per test subject) was 1060 ng/mL and 760 ng/mL. For the same molecule, the Plasma concentration ([1]; day 0, 10 mg/kg, 8 h, per test subject) was 107 ng/mL and 147 ng/mL, the Plasma concentration ([1]; day 0, 10 mg/kg, 10 h, per test subject) was 2460 ng/mL and 1460 ng/mL and the Plasma concentration ([1]; day 0, 10 mg/kg, 12 h, per test subject) was 968 ng/mL and 656 ng/mL. The Plasma concentration ([1]; day 0, 10 mg/kg, 14 h, per test subject) was 525 ng/mL and 469 ng/mL, the AUClast/D ([1]; day 0, 10 mg/kg, Mean) was 751 (ng·h/mL)/(mg/kg) and the “AUC—% Extrap—obs” value ([1]; day 0, 10 mg/kg, Mean) was 2.29%. For the same molecule, the AUCInf [1, 6] was 16528 ng·h/mL and 15290 ng·h/mL, the AUClast [1, 6] was 16397 ng·h/mL and 14408 ng·h/mL and the AUClast/D [1, 6] was 713 (ng·h/mL)/(mg/kg) and 820 (ng·h/mL)/(mg/kg) and 720 (ng·h/mL)/(mg/kg). The “AUC—% Extrap—obs” value [1, 6] was 0.307% and 0.788% and 5.77%, the Cmax [1, 6] was 2460 ng/mL and 1610 ng/mL and the “MRTInf—obs” value [1, 6] was 8.69 h and 9.50 h. The Tmax [1, 6] was 10.0 h, the Plasma concentration ([1]; day 20, 10 mg/kg, 0.25 h, per test subject) was 1400 ng/mL and 1570 ng/mL and the Plasma concentration ([1]; day 20, 10 mg/kg, 0.5 h, per test subject) was 1550 ng/mL and 1730 ng/mL. The Plasma concentration ([1]; day 20, 10 mg/kg, 1 h, per test subject) was 1730 ng/mL and 1590 ng/mL, the Plasma concentration ([1]; day 20, 10 mg/kg, 2 h, per test subject) was 1260 ng/mL and 1320 ng/mL and the Plasma concentration ([1]; day 20, 10 mg/kg, 4 h, per test subject) was 513 ng/mL and 518 ng/mL. The Plasma concentration ([1]; day 20, 10 mg/kg, 10 h, per test subject) was 1710 ng/mL and 1460 ng/mL, the Plasma concentration ([1]; day 20, 10 mg/kg, 12 h, per test subject) was 461 ng/mL and 498 ng/mL and the AUCInf [1, 7] was 11782 ng·h/mL and 11743 ng·h/mL. For the same molecule, the AUClast [1, 7] was 11699 ng·h/mL and 11548 ng·h/mL, the AUClast/D [1, 7] was 421 (ng·h/mL)/(mg/kg) and 585 (ng·h/mL)/(mg/kg) and 577 (ng·h/mL)/(mg/kg) and the “AUC—% Extrap—obs” value [1, 7] was 0.982% and 0.700% and 1.65%. For the same molecule, the Cmax [1, 7] was 1730 ng/mL, the “MRTInf—obs” value [1, 7] was 6.80 h and 7.09 h and the T1/2 [1, 7] was 2.85 h and 3.54 h. For the same molecule, the Tmax [1, 7] was 1.00 h and 0.500 h, the IC50 (IL-17A; Test Subject 1, read-out: IL-17A IC50) was 20.5 nM and the IC50 (IL-17A; Test Subject 2, read-out: IL-17A IC50) was 5.7 nM. The IC50 (IL-17A; Test Subject 3, read-out: IL-17A IC50) was 58.5 nM, the IC50 (IL-17A; mean of test subjects, read-out: IL-17A IC50 Mean) was 28.2 nM and the “effectiveness in reducing inflammatory biomarkers IL-17A, IL-22, and CXCL-10 relative to GSK620” value (IL-17A; human PBMC) was “more effective than GSK620”. For the same molecule, the “IC50 for IL-17A relative to GSK620” value (IL-17A; human PBMC, 72 hours) was “substantially lower IC50”, the “Biomarker selectivity (IL-17 vs. CXCL10)” value (IL-17A; human PBMC, from mean IC50) was greater than 1063 Fold and the “Plasma concentration of Example 101” value ([2]; male SD rats, oral, 4 h after final treatment, individual test subjects) was 485 ng/mL and 959 ng/mL and 760 ng/mL and 859 ng/mL and 906 ng/mL and 1160 ng/mL and 665 ng/mL and 941 ng/mL. For the same molecule, the concentration at 4 h ([2]; male, SD, Mean plasma concentration of Example 101, male SD rats, oral, 4 h after final treatment, mean of 8 subjects) was 846 ng/mL and the concentration at 4 h ([2]; UUO rats, 30 mg/kg oral, four hours after final treatment, read-out: mean plasma concentration) was 846 ng/mL.

From US20250263370A1 (Tay Therapeutics Limited, priority 2022, published 2025)
